US8242120B2 (priority 2007, dated 2012)
Entries after “also recorded” stand apart in the source; their conditions may differ.

Legend:
[1] = system: Avian influenza A strain H5N1 virus; assay type: cell-based
[2] = system: Venezuelan Equine Encephalitis (VEE); assay type: cell-based, Venezuelan equine encephalitis virus
flu A (DUCK)-H5N1 virus = assay type: cell-based, Avian influenza A H5N1
[3] = system: Venezuelan equine encephalitis virus (TC-83 vaccine strain); parameters: species or system C3H/HeN mice; settings: in vivo
[4] = mouse, in vivo
CTP synthase = settings: cited from earlier work

With `Nc1ccn([C@@H]2C[C@H](CO)[C@@H](O)[C@H]2O)c(=O)n1` [(−) carbodine, (1R,2S,3R,4R)-1-[2,3-Dihydroxy-4-(hydroxymethyl)-cyclopentan-1-yl]cytosine] the “activity as an inhibitor of Avian Influenza A strain H5N1” value [1] was “good activity”, the “activity against VEE in vitro” value [2] was “good activity” and the “activity against H5N1 in vitro” value (flu A (DUCK)-H5N1 virus) was “good activity”. The “activity against vaccine strain (TC-83) of VEEV in C3H/HeN mouse model” value [3] was “active”, the “all disease signs measured” value ([3]; mouse) was “effective in significantly improving” and the “mean day to death” value ([3]; mouse) was “efficacious in significantly improving; also recorded: effective in significantly improving”. For the same compound, the “reduction in brain virus titer” value ([3]; mouse) was 1 log, the survival ([3]; mouse) was “efficacious in significantly improving; also recorded: effective in significantly improving” and the weight gain ([3]; mouse) was “efficacious in significantly improving; also recorded: effective in significantly improving”. For the same compound, the “weight loss in sham infected mice” value [4] was “weight loss was observed” and the “inhibition of CTP synthase that converts UTP to CTP” value (CTP synthase) was “known inhibitor”.
